Results as given in ChEMBL document CHEMBL1799998, “Exploration of antimicrobial and antioxidant potential of newly synthesized 2,3-disubstituted quinazoline-4(3H)-ones” (Bioorg Med Chem Lett, 2011).

Assays:
Assay type in all cases: functional
[1] = system: Radical scavenging activity; experiment: Antioxidant activity against DPPH free radical assessed as compound able to consume half the initial amount of DPPH free radical after 30 to 60 mins by spectrophotometry
[2] = system: Escherichia coli; experiment: Antimicrobial activity against Escherichia coli after 24 hrs by disc diffusion method; also: test concentration or dose not given here
[3] = system: Staphylococcus aureus; experiment: Antimicrobial activity against Staphylococcus aureus after 24 hrs by disc diffusion method; also: test concentration or dose not given here
[4] = system: Pseudomonas aeruginosa; experiment: Antimicrobial activity against Pseudomonas aeruginosa after 24 hrs by disc diffusion method; also: test concentration or dose not given here
[5] = system: Radical scavenging activity; experiment: Antioxidant activity against DPPH free radical assessed as compound able to consume half the initial amount of DPPH free radical by spectrophotometry; conditions: TDE = time-dependent effect
[6] = system: Bacillus subtilis; experiment: Antimicrobial activity against Bacillus subtilis after 24 hrs by disc diffusion method; also: test concentration or dose not given here

Structure (SMILES) | Activity [1] | IC50 [1] [µM] | inhibition zone (IZ) [2] [mm] | inhibition zone (IZ) [3] [mm] | inhibition zone (IZ) [4] [mm] | Activity [5] | inhibition zone (IZ) [6] [mm]
CC1=NC(=S)N(n2c(CCl)nc3ccccc3c2=O)C(=O)C1/N=N/c1ccc(O)c([N+](=O)[O-])c1 (centres undefined) | Dose-dependent effect | 8.6 | 14 | 29 | 12 | tde | 20
CC1=NC(=S)N(n2c(CCl)nc3ccccc3c2=O)C(=O)C1/N=N/c1cccc(C)c1O (centres undefined) | Dose-dependent effect | 3.5 | 27.5 | 44.5 | 23.5 | tde | 36.5
CC1(C)S[C@@H]2[C@H](NC(=O)[C@H](N)c3ccccc3)C(=O)N2[C@H]1C(=O)O [AMPICILLIN] |  |  | 28 | 36 | 20 |  | 40
CC1=NC(=S)N(n2c(CCl)nc3ccccc3c2=O)C(=O)C1/N=N/c1ccc(C)cc1O (centres undefined) | Dose-dependent effect | 5.1 | 25 | 39 | 22 | tde | 33
CC1=NC(=S)N(n2c(CCl)nc3ccccc3c2=O)C(=O)C1/N=N/c1ccc(Cl)cc1O (centres undefined) | Dose-dependent effect | 7 | 20.5 | 33 | 18.5 | tde | 29
COc1ccc(/N=N/C2C(=O)N(n3c(CCl)nc4ccccc4c3=O)C(=S)N=C2C)cc1O (centres undefined) | Dose-dependent effect | 3 | 30 | 47.5 | 28 | tde | 42.1
CC1=NC(=S)N(n2c(CCl)nc3ccccc3c2=O)C(=O)C1/N=N/c1ccccc1 (centres undefined) | Dose-dependent effect |  | 11.5 | 24.5 | 7 | tde | 16.2
CC1=NC(=S)N(n2c(CCl)nc3ccccc3c2=O)C(=O)C1/N=N/c1ccc(O)c(O)c1 (centres undefined) | Dose-dependent effect | 1.4 | 17.5 | 31.5 | 16 | tde | 27
CC1=NC(=S)N(n2c(CCl)nc3ccccc3c2=O)C(=O)C1/N=N/c1ccc(O)cc1O (centres undefined) | Dose-dependent effect | 2.1 | 15.5 | 30 | 13.5 | tde | 24.5
CC1=NC(=S)N(n2c(CCl)nc3ccccc3c2=O)C(=O)C1/N=N/c1cccc(Cl)c1O (centres undefined) | Dose-dependent effect | 8.3 | 20.9 | 33.5 | 21.5 | tde | 31.5
O=C1O[C@H]([C@@H](O)CO)C(O)=C1O [ASCORBIC ACID] |  | 9.2 |  |  |  |  | 
CC1=NC(=S)N(n2c(CCl)nc3ccccc3c2=O)C(=O)C1/N=N/c1ccc(O)cc1 (centres undefined) | Dose-dependent effect | 5.4 | 13.5 | 27 | 10 | tde | 18.5
